The values below come from article PMC12670395, “Structural Rationalization of IPMK Inhibitor Potency” (Journal of Medicinal Chemistry, 2025).

The structures appear in SMILES notation. Where “and” joins values, the source holds several entries; their conditions need not be identical. Identical values can stand only once.

In data set [1] the target is T1, human IPMK (Homo sapiens, UniProt Q8NFU5).
T1 sequence (Q8NFU5 with tags, fused parts or gaps): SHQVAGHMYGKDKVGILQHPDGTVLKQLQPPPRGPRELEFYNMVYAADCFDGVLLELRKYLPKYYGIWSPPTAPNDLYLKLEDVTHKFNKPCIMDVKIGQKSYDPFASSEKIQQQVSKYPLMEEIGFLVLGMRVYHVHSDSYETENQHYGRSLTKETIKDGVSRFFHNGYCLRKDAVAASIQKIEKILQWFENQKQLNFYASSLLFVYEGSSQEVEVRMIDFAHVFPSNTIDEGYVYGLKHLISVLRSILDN
Put plainly: IPMK kinase activity assay (33P-radiolabeled HPLC assay). To be noted: 33P-1,3,4,5-IP4 to InsP5, 1.0 mM ATP, 2 nM IPMK; mean with standard error, n = 3 (compound 1 n = 5). The format is biochemical. The procedure:
(§1) For all enzyme assays, a serial dilution of the enzyme was performed in the kinase assay to determine the linear range of the enzyme concentration to be used.
(§2) We prepared ^33P-1,3,4,5-IP4 by incubating 1,4,5-IP3, ^33P-ATP, and IPMK, isolated the product with a 30 K d MW cutoff filter. Each reaction contained trace amounts (4,00,000 disintegrations per minute (dpm)) of ^33P-1,3,4,5-IP4 in a 100 μL incubation containing 20 mM HEPES (pH 7.2), 100 mM KCl, 3.5 mM MgCl2, 20 μM EDTA, 1.0 mM ATP, 1 μM 1,3,4,5-IP4, plus test compound in DMSO (or vehicle control) plus 2 nM IPMK. Assays were analyzed by HPLC, using a PartiSphere SAX 120, 5 μm, 4.6 × 125 mm HPLC column with a 250 μL injection volume. The elution gradient was generated by mixing Buffer A (1 mm Na2EDTA) with Buffer B (Buffer A plus 2.5 M NH4H2PO4, pH 3.9) and monitored by a β-RAM 6 in-line scintillation detector. A 1.0 mL/min elute was mixed with 0.5 or 2.5 mL/min monoflow scintillation liquid for ^33P or ^3H, respectively. Radiochromatography data were collected and analyzed using Laura software (v6.1.2.36).

For data set [2], the system named is human IPMK. Described as above. The format is biochemical. The conditions noted are these: for selectivity for IPMK over IP6K1: from IC50 values; for IP6K1/IPMK: ratio of IP6K1 IC50 to IPMK IC50. Here is the method:
as §1, §2

In another data set the target is T2, human IP6K1 (Homo sapiens, UniProt Q92551).
T2 construct: made in house
Kind of data set: IP6K kinase activity assay (enzyme-coupled, malachite green Pi release). Type of data set: biochemical. To be noted: 100 nM IP6K1, 25 μM InsP6, 500 μM ATP, 37 °C; mean with standard error, n = 3. Here is the method:
as §1
An enzyme-coupled assay was used to measure IP6K activity. Enzyme activity was assayed at 37 °C in 50 μL of reaction mixtures containing 100 nM IP6K1, 5.0 μM human Dipp1, 20 mM HEPES (pH 7.2), 100 mM KCl, 3.5 mM MgCl2, 20 μM EDTA, 25 μM InsP6, and 500 μM ATP for 60–120 min. Pi release was determined with a malachite green colorimetric assay. Reactions were quenched by the addition of 100 μL of phosphate detection reagent (36:1 v/v of 2.6% sodium molybdate in 2.5 M HCl: 0.126% malachite green chloride). Phosphate (Pi) release was quantified from the absorbance at 620 nm by using appropriate standards.

The next data set concerns the target IP3K-A (Homo sapiens, UniProt P23677). Put plainly: IP3K kinase activity assay ([3H]-InsP3, HPLC). Type of data set: biochemical. The conditions noted are these: 1.0 μM 1,4,5-InsP3, 1.0 mM ATP, 0.25 nM IP3K-A; standard error, n = 3. The procedure:
as §1
Each reaction contained 1.0 μM [^3H]-1,4,5-InsP3 (approximately 30,000 dpm; American Radiolabeled Chemicals, Inc., ART 0270) in a 100 μL incubation containing 20 mM HEPES (pH 7.2), 100 mM KCl, 3.5 mM MgCl2, 20 μM EDTA, 1.0 mM ATP, 1.0 μM 1,4,5-InsP3, plus test compound in DMSO (or vehicle control), and 0.25 nM IP3K-A. Reactions were quenched after 60 min by the addition of 2 volumes of 0.2 M NH4H2PO4, pH 3.9 and 20 mM EDTA and stored at 27 °C. Assays were analyzed by HPLC, using a PartiSphere SAX 120 Å, 5 μm, 4.6 × 125 mm HPLC column with a 250 μL injection volume. The elution gradient was generated by mixing Buffer A (1 mm Na2EDTA) with Buffer B (Buffer A plus 2.5 M NH4H2PO4, pH 3.9) and monitored by a β-RAM 6 in-line scintillation detector. A 1.0 mL/min elute was mixed with 0.5 or 2.5 mL/min monoflow scintillation liquid for ^33P or ^3H, respectively. Radiochromatography data were collected and analyzed using Laura software (v6.1.2.36).

Data set [3] concerns the target T1, human IPMK. Put plainly: Isothermal titration calorimetry (ITC). Type of data set: binding. To be noted: 15 μM IPMK in cell, 150 μM inhibitor in syringe, 25 °C, pH 7.2. Here is the method: Isothermal calorimetry experiments were performed using a MicroCal PEAQ-ITC (Malvern Panalytical) with 15 μM recombinant human IPMK in the sample cell and 150 μM inhibitor 1 in the syringe, each of which was maintained at 25 °C in buffer containing 20 mM Tris-HCl, pH 7.2, 150 mM KCl, 0.05 mM EDTA, and 0.8 mM MgCl2. The sample cell (volume = 204 μL) and the syringe were cleaned before each run. Thermograms were constructed from 20 injections, each of which involved 2.0 μL of ligand delivered for 4.0 s, with an equilibration time of 150–300 s between each injection. The stirring speed was set to 750 rpm. Data were fitted to a single binding site model using the analysis software provided by the manufacturer, as supported by X-ray crystallography. At least three runs were performed.

The subject of data set [4] is human U251-MG glioblastoma cells. Set-up: method as in other studies (number not given). The conditions noted are these: ref other studies (number not given); cited from earlier work.
Details of data set [5]: method as in recent work from another group (number not given). To be noted: mice, intraperitoneal injection; ref recent work from another group (number not given); cited from earlier work.

T2 sequence (Q92551 whole entry): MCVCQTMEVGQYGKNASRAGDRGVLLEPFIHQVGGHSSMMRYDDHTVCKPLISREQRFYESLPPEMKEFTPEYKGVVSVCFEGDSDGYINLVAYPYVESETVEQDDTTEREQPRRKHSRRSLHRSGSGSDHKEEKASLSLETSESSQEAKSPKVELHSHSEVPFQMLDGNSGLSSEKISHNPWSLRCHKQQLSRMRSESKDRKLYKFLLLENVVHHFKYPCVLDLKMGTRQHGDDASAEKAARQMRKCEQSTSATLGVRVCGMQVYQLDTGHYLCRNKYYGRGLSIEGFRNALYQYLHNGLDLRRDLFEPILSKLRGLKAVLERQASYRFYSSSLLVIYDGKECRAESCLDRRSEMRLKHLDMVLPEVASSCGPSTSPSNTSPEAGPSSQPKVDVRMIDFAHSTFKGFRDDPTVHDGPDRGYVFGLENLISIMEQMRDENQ
Chain of IP3K-A (P23677 whole entry): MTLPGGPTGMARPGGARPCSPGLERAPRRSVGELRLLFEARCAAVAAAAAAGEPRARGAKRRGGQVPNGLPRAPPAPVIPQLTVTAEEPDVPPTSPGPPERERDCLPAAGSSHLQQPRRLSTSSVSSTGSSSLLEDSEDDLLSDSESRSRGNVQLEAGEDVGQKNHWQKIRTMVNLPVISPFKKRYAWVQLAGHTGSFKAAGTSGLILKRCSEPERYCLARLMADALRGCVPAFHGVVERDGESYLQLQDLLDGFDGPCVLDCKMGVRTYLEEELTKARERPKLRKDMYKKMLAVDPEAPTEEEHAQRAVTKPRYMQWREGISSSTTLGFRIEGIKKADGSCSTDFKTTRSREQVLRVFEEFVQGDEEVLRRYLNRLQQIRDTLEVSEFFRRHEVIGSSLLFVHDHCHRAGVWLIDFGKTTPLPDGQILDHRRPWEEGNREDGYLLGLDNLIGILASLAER

Usually IC50 stands for the midpoint of a concentration-inhibition curve. A lower IC50 goes with greater potency. One may read the Kd as the equilibrium constant for the complex coming apart. Regarding `Cc1cc(C)cc(-c2onc3ccc(/C=C/C(=O)O)cc23)c1` [Compound 1], the IC50 against human IPMK [1] was found to be 12.8 ± 2 nM; against human IP6K1, 146 ± 23 nM; against IP3K-A, 8000 nM. The “selectivity for IPMK over IP6K1” value with human IPMK [2] is “approximately 10 fold”. Besides, the IP6K1/IPMK in the data set on human IPMK [2] is 11.4. Also, at human IPMK [3], the Kd is 11 nM.

On to `Cc1cc(C)cc(-c2onc3ccc([C@H]4C[C@@H]4C(=O)O)cc23)c1` [Compound 2], for which the IC50 against human IPMK [1] came to 8.1 ± 2 nM; at human IP6K1 it was 45 ± 7 nM. For the same compound, in the data set with human IPMK [2], the IP6K1/IPMK amounted to 5.6.

Take `Cc1cc(C)cc(-c2onc3ccc(C(=O)O)cc23)c1` [Compound 3]: at human IPMK [1], the midpoint of inhibition, the IC50, lay at 29 ± 5 nM. The IP6K1/IPMK in the data set on human IPMK [2] came out at 3.

As for `Cc1cc(C)cc(-c2onc3ccc(-c4nnn[nH]4)cc23)c1` [Compound 4], the IC50 at human IPMK [1] was found to be 1.9 ± 0.2 nM; at human IP6K1 it was 24 ± 6 nM. In addition, the IP6K1/IPMK with human IPMK [2] amounted to 13.

As to `c1ccc(-c2onc3ccc(-c4nnn[nH]4)cc23)cc1` [Compound 6], the IC50 was determined as 3.8 ± 0.4 nM at human IPMK [1] and 38 ± 8 nM against human IP6K1. Further, in the data set with human IPMK [2], the “selectivity for IPMK over IP6K1” value worked out at 10 fold. Further, in the data set on human IPMK [2], the IP6K1/IPMK stood at 10.

Compound `FC(F)(F)c1ccc(-c2onc3ccc(-c4nnn[nH]4)cc23)cc1` [Compound 7] showed an IC50 on human IPMK [1] of 2.5 ± 0.3 nM. The IP6K1/IPMK with human IPMK [2] worked out at 9.2.

Take `FC(F)(F)Oc1ccc(-c2onc3ccc(-c4nnn[nH]4)cc23)cc1` [Compound 8]: the IC50 on human IPMK [1] stood at 3.3 ± 0.4 nM; against human IP6K1, 59 ± 14 nM. Further, in the data set on human IPMK [2], the IP6K1/IPMK is on record as 13.

Regarding `c1ccc(Oc2ccc(-c3onc4ccc(-c5nnn[nH]5)cc34)cc2)cc1` [Compound 9], the IC50 at human IPMK [1] was 11 ± 2 nM; on human IP6K1 it was 1270 nM and 1300 nM. Further, in the data set with human IPMK [2], the IP6K1/IPMK is 115.

As to `O=C(Nc1ccc(-c2onc3ccc(-c4nnn[nH]4)cc23)cc1)C1CC1` [Compound 10], the IC50 on human IPMK [1] was 3.5 ± 0.4 nM; against human IP6K1, 35.8 nM and 36 nM. In the data set on human IPMK [2], the IP6K1/IPMK is given as 10.

On to `O=C(Nc1cccc(-c2onc3ccc(-c4nnn[nH]4)cc23)c1)C1CC1` [Compound 11], for which the IC50 at human IPMK [1] is 0.99 nM and 1 nM. Besides, in the data set on human IPMK [2], the “selectivity for IPMK over IP6K1” value was determined as 50 fold and the IP6K1/IPMK stood at 52. Moreover, the IC50 against human IP6K1 is 52 nM and 51.8 nM.

In the case of `c1cc(OC2CCNCC2)cc(-c2onc3ccc(-c4nnn[nH]4)cc23)c1` [Compound 12], 3.4 ± 0.5 nM corresponded to half-maximal inhibition against human IPMK [1] (IC50). Also, in the data set with human IPMK [2], the IP6K1/IPMK is 8.8.

In the case of `Clc1cnc(Oc2cccc(-c3onc4ccc(-c5nnn[nH]5)cc34)c2)c(Cl)c1` [Compound 13], the values for the IC50 against human IPMK [1] and against human IP6K1 were 9.5 ± 2 nM and 19 ± 4 nM, respectively. The IP6K1/IPMK in the data set with human IPMK [2] was determined as 1.9.

Consider `c1cc(-c2onc3ccc(-c4nnn[nH]4)cc23)cc(C2CCN(C3CCC3)CC2)c1` [Compound 14], for which, at human IPMK [1], the IC50 is 3 nM and 2.8 nM. Moreover, in data set [4], the cellular growth entry is on record as “decrease” and the inositol phosphate metabolism entry is listed as “decrease”. Also, the “clearance, half-life, and volume of distribution” value in data set [5] was “reasonable”.

`O=C(Nc1cccc(-c2onc3ccc(-c4nnn[nH]4)cc23)c1)C1CCCC1` [Compound 15]: the IC50 against human IPMK [1] was 1.1 nM and 1.13 nM; against human IP6K1, 40.1 ± 4 nM. Further, the IP6K1/IPMK in the data set on human IPMK [2] was 36.
